This is an account of results in patent publication US20080261994A1, “CYCLOPROPANE COMPOUNDS AND PHARMACEUTICAL USE THEREOF” (Japan Tobacco Inc., priority 2003, published 2008).

Common to all, as to type: biochemical
The target in assay [1] is T1, aggrecanase-1 (Homo sapiens, UniProt O75173).
T1 sequence (O75173 213-837): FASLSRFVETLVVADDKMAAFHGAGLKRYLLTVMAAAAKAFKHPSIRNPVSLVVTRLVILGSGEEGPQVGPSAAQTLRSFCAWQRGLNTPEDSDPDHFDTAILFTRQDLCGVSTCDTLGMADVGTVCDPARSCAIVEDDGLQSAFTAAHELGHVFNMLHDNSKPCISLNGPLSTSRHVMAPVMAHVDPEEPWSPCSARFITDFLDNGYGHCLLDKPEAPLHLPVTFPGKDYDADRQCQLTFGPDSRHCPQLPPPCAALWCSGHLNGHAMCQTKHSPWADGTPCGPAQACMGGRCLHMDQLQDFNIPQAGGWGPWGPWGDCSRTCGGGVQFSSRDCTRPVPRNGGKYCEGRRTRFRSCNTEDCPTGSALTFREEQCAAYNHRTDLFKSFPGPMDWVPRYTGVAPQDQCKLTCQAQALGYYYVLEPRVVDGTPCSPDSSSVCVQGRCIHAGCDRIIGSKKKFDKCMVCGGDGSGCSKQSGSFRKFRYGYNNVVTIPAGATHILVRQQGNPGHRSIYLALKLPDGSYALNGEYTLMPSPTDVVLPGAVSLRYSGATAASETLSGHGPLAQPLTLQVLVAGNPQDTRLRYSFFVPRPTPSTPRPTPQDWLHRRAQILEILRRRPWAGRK
In words: Aggrecanase-1 inhibitory action (Particle Assay, GAG release from aggrecan-containing polyacrylamide particles). Particulars: Experimental Example 1; read-out: IC50 AG1. Put shortly: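 Readout was dimethylmethylene blue absorbance (595 nm) of glycosaminoglycan liberated into supernatant, calibrated with whale chondroitin sulfate. Substrate was aggrecan in polyacrylamide particles, digested 15 h at 37° C in Tris-HCl; TC50 (μM) derived from inhibition relative to no-enzyme and no-inhibitor controls.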

In assay [2] the target is T2, MMP-1 (Homo sapiens, UniProt P03956).
T2 sequence (P03956 100-469): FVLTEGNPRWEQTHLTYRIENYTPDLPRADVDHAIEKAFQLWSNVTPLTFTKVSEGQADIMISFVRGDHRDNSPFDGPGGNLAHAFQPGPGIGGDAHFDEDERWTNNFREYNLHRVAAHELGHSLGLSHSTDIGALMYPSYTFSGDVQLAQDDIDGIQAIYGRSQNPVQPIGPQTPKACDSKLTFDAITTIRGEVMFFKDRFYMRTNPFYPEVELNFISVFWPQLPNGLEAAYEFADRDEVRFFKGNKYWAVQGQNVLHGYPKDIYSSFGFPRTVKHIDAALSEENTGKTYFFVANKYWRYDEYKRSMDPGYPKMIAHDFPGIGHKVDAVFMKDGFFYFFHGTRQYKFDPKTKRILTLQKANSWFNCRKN
Briefly: MMP-1 inhibitory action (Type I collagen Activity Measurement kit, FITC-labeled collagen type I). Particulars: Experimental Example 2; read-out: IC50 MMP1.

Assay [3] concerns the target T3, Recombinant Human MMP-13 (Homo sapiens, UniProt P45452).
T3 construct: purchased R&D systems 511-MM
Briefly: MMP-13 inhibitory activity (MMP-13 specific fluorescent substrate with quencher). Conditions: Experimental Example 3; read-out: IC50 MMP13. In outline:
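IC50 (μM) derived from % inhibition, normalised to wells without enzyme and without inhibitor, fluorescence read at 325/405 nm. Enzyme and compound preceded addition of the quenched 7-MCA…DPA substrate; Tris-HCl buffer, 25 °C for 1 h, acetic-acid stop.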

Regarding `CCN(CC)CC1(c2ccccc2)CC1(NS(=O)(=O)c1ccc(-c2cc(C(F)(F)F)on2)s1)C(=O)O` (stereo not drawn) [Example 2-343], the results for the IC50 in assay [1], in assay [2] and in assay [3] were at least 1000 nM, at least 10000 nM and at least 1000 nM, respectively.

As for `C[C@@H]1CN(CC2(c3ccccc3)CC2(NS(=O)(=O)c2ccc(-c3ccc(Cl)cc3)s2)C(=O)O)C[C@H](C)O1` (stereo partly drawn) [Example 2-344], the figures for the IC50 in assay [1], in assay [2] and in assay [3] were below 100 nM, at least 10000 nM and below 1000 nM, respectively.

For `O=C(O)C1(NS(=O)(=O)c2ccc(-c3ccc(Cl)cc3)s2)CC1(CSCCO)c1ccccc1` (stereo not drawn) [Example 2-345], the IC50 in assay [1] was below 100 nM; in assay [2], at least 10000 nM; in assay [3], below 1000 nM.

For `O=C(O)C1(NS(=O)(=O)c2ccc(-c3ccc(Cl)cc3)s2)CC1(Cn1ccnc1)c1ccccc1` (stereo not drawn) [Example 2-346], the IC50 in assay [1] was below 1000 nM; in assay [2] it was at least 10000 nM; in assay [3], below 1000 nM.

`O=C(O)C1(NS(=O)(=O)c2ccc(-c3ccc(Cl)cc3)s2)CC1(COCCO)c1ccccc1` (stereo not drawn) [Example 2-347]: the half-maximal inhibitory concentration (IC50) in assay [1] is below 100 nM; in assay [2], at least 10000 nM; in assay [3] it was below 1000 nM.

As to `CC(C)S(=O)(=O)CC1(c2ccccc2)CC1(NS(=O)(=O)c1ccc(-c2ccc(Cl)cc2)s1)C(=O)O` (stereo not drawn) [Example 2-348], the IC50 in assay [1] is below 1000 nM; in assay [2] it was at least 10000 nM; in assay [3], below 1000 nM.

As to `CC(C)SCC1(c2ccccc2)CC1(NS(=O)(=O)c1ccc(-c2ccc(Cl)cc2)s1)C(=O)O` (stereo not drawn) [Example 2-349], the IC50 is below 100 nM in assay [1], at least 10000 nM in assay [2] and below 1000 nM in assay [3].

On to `O=C(O)C1(NS(=O)(=O)c2ccc(-c3ccc(Cl)cc3)s2)C2CCc3ccccc3C21` (stereo not drawn) [Example 2-350], for which the 50% inhibitory concentration (IC50) is below 1000 nM in assay [1], at least 1000 nM in assay [2] and below 100 nM in assay [3].

With `O=C(O)C1(NS(=O)(=O)c2ccc(-c3cc(C(F)(F)F)on3)s2)C2CCc3ccccc3C21` (stereo not drawn) [Example 2-351], the results for the IC50 in assay [1], in assay [2] and in assay [3] were below 100 nM, below 1000 nM and below 100 nM, respectively.

As to `CCOC(=O)CSCC1(c2ccccc2)CC1(NS(=O)(=O)c1ccc(-c2ccc(Cl)cc2)s1)C(=O)O` (stereo not drawn) [Example 2-352], the IC50 in assay [1] is below 100 nM; in assay [2] it was at least 1000 nM; in assay [3], below 100 nM.

On to `CC1[C@H](c2ccccc2)[C@]1(NS(=O)(=O)c1ccc(-c2cc(C(F)F)on2)s1)C(=O)O` (stereo partly drawn) [Example 2-353], for which the IC50 in assay [1] is below 100 nM; in assay [2] it was below 1000 nM; in assay [3] it was below 100 nM.

For the compound `CC1[C@H](c2ccccc2)[C@]1(NS(=O)(=O)c1ccc(-c2cc(C(F)F)no2)s1)C(=O)O` (stereo partly drawn) [Example 2-354], the IC50 in assay [1] is below 100 nM; in assay [2], at least 1000 nM; in assay [3], below 1000 nM.

As to `O=C(O)C1(NS(=O)(=O)c2ccc(OCc3ccc(Cl)cc3Cl)cc2)C2CCc3ccccc3C21` (stereo not drawn) [Example 2-355], the figures for the half-inhibitory concentration (IC50) in assay [1], in assay [2] and in assay [3] were at least 1000 nM, at least 1000 nM and below 1000 nM, respectively.

With `O=C(O)C1(NS(=O)(=O)c2ccc(-c3ccc(Cl)cc3)s2)CC1(COCc1ccccc1)c1ccccc1` (stereo not drawn) [Example 2-356], the IC50 in assay [1], in assay [2] and in assay [3] was below 1000 nM each time.

Take `CN(C)C(=O)CSCC1(c2ccccc2)CC1(NS(=O)(=O)c1ccc(-c2ccc(Cl)cc2)s1)C(=O)O` (stereo not drawn) [Example 2-357]: the IC50 in assay [1] was below 100 nM; in assay [2], at least 1000 nM; in assay [3] it was below 100 nM.

For the compound `O=C(O)CSCC1(c2ccccc2)CC1(NS(=O)(=O)c1ccc(-c2ccc(Cl)cc2)s1)C(=O)O` (stereo not drawn) [Example 2-358], the IC50 was below 100 nM in assay [1], at least 1000 nM in assay [2] and below 1000 nM in assay [3].

Turning to `O=C(CSCC1(c2ccccc2)CC1(NS(=O)(=O)c1ccc(-c2ccc(Cl)cc2)s1)C(=O)O)N1CCOCC1` (stereo not drawn) [Example 2-359], the IC50 is below 1000 nM in assay [1], at least 1000 nM in assay [2] and below 100 nM in assay [3].

In the case of `O=C(NO)C1(NS(=O)(=O)c2ccc(OCc3ccc(Cl)cc3Cl)cc2)C2CCc3ccccc3C21` (stereo not drawn) [Example 2-360], the IC50 in assay [1] is below 100 nM; in assay [2] it was at least 10000 nM; in assay [3], below 1000 nM.

Take `NCC1(c2ccccc2)CC1(NS(=O)(=O)c1ccc(-c2ccc(Cl)cc2)s1)C(=O)O` (stereo not drawn) [Example 2-361]: the IC50 is at least 1000 nM in assay [1], at least 10000 nM in assay [2] and at least 1000 nM in assay [3].

As for `O=C1OCCN1CC1(c2ccccc2)CC1(NS(=O)(=O)c1ccc(-c2ccc(Cl)cc2)s1)C(=O)O` (stereo not drawn) [Example 2-362], the IC50 was below 1000 nM in assay [1], at least 10000 nM in assay [2] and below 100 nM in assay [3].

For `O=C(O)C1(NS(=O)(=O)c2ccc(OCc3ccc(Cl)cc3Cl)cc2)C2CCCc3ccccc3C21` (stereo not drawn) [Example 2-363], the IC50 in assay [1] was at least 1000 nM; in assay [2] it was at least 10000 nM; in assay [3], below 1000 nM.

With `O=C(NO)C1(NS(=O)(=O)c2ccc(-c3ccc(Cl)cc3)s2)C2CCc3ccccc3C21` (stereo not drawn) [Example 2-364], the 50% inhibitory concentration (IC50) was below 1000 nM in assay [1], below 1000 nM in assay [2] and below 100 nM in assay [3].

Regarding `O=C(O)C1(NS(=O)(=O)c2ccc(-c3ccc(Cl)cn3)s2)C2CCCc3ccccc3C21` (stereo not drawn) [Example 2-365], the figures for the IC50 in assay [1], in assay [2] and in assay [3] were below 100 nM, below 1000 nM and below 100 nM, respectively.

For `CC1[C@H](c2ccccc2)[C@]1(NS(=O)(=O)c1ccc(-c2ccc(Cl)cn2)s1)C(=O)O` (stereo partly drawn) [Example 2-366], the IC50 in assay [1] is below 100 nM; in assay [2], below 1000 nM; in assay [3], below 100 nM.

In the case of `Cc1cn(-c2ccc(S(=O)(=O)N[C@@]3(C(=O)O)C(C)[C@@H]3c3ccccc3)s2)cn1` (stereo partly drawn) [Example 2-367], the figures for the IC50 in assay [1], in assay [2] and in assay [3] were at least 1000 nM, at least 10000 nM and at least 1000 nM, respectively.

Consider `O=C(NCC1(c2ccccc2)CC1(NS(=O)(=O)c1ccc(-c2ccc(Cl)cc2)s1)C(=O)O)c1ccccn1` (stereo not drawn) [Example 2-368], for which the figures for the IC50 in assay [1], in assay [2] and in assay [3] were below 1000 nM, at least 1000 nM and below 1000 nM, respectively.

As to `O=C(O)C1(NS(=O)(=O)c2ccc(-c3ccc(Cl)cc3)s2)C2CCOc3ccccc3C21` (stereo not drawn) [Example 2-369], the IC50 in assay [1] is below 100 nM; in assay [2] it was at least 1000 nM; in assay [3] it was below 100 nM.

Take `O=C(O)C1(NS(=O)(=O)c2ccc(-c3cc(C(F)(F)F)on3)s2)C2CCOc3ccccc3C21` (stereo not drawn) [Example 2-370]: the values for the IC50 in assay [1], in assay [2] and in assay [3] were below 100 nM, below 1000 nM and below 100 nM, respectively.

`O=C(O)[C@]1(NS(=O)(=O)c2ccc(-c3cc(C(F)(F)F)on3)o2)C[C@@H]1c1ccccc1` [Example 2-371]: the concentration for half-maximal inhibition (IC50) in assay [1] is at least 1000 nM; in assay [2], at least 10000 nM; in assay [3], at least 1000 nM.

As for `CC1[C@H](c2ccccc2)[C@]1(NS(=O)(=O)c1ccc(-c2cc(C(F)(F)F)on2)o1)C(=O)O` (stereo partly drawn) [Example 2-372], the half-inhibitory concentration (IC50) in assay [1] was at least 1000 nM; in assay [2] it was at least 10000 nM; in assay [3], at least 1000 nM.

`O=C(O)C1(NS(=O)(=O)c2ccc(-c3cc(C(F)(F)F)on3)o2)C2CCCc3ccccc3C21` (stereo not drawn) [Example 2-373]: the IC50 in assay [1] is at least 1000 nM; in assay [2], at least 10000 nM; in assay [3] it was at least 1000 nM.

On to `Cc1cc(-c2ccc(S(=O)(=O)N[C@@]3(C(=O)O)C(C)[C@@H]3c3ccccc3)s2)no1` (stereo partly drawn) [Example 2-374], for which the IC50 was below 100 nM in assay [1], below 1000 nM in assay [2] and below 100 nM in assay [3].

Consider `Cc1cc(-c2ccc(S(=O)(=O)NC3(C(=O)O)C4CCCc5ccccc5C43)s2)no1` (stereo not drawn) [Example 2-375], for which the half-inhibitory concentration (IC50) is below 100 nM in assay [1], below 1000 nM in assay [2] and below 100 nM in assay [3].

Take `CC(=O)NCC1(c2ccccc2)CC1(NS(=O)(=O)c1ccc(-c2ccc(Cl)cc2)s1)C(=O)O` (stereo not drawn) [Example 2-376]: the IC50 in assay [1] is below 1000 nM; in assay [2], at least 10000 nM; in assay [3], below 1000 nM.
